The term IC50 denotes the concentration needed to halve the response being measured.

The target in the experiment is T1, Protein-glutamine gamma-glutamyltransferase (Homo sapiens, UniProt P21980).
T1 sequence (P21980 whole entry): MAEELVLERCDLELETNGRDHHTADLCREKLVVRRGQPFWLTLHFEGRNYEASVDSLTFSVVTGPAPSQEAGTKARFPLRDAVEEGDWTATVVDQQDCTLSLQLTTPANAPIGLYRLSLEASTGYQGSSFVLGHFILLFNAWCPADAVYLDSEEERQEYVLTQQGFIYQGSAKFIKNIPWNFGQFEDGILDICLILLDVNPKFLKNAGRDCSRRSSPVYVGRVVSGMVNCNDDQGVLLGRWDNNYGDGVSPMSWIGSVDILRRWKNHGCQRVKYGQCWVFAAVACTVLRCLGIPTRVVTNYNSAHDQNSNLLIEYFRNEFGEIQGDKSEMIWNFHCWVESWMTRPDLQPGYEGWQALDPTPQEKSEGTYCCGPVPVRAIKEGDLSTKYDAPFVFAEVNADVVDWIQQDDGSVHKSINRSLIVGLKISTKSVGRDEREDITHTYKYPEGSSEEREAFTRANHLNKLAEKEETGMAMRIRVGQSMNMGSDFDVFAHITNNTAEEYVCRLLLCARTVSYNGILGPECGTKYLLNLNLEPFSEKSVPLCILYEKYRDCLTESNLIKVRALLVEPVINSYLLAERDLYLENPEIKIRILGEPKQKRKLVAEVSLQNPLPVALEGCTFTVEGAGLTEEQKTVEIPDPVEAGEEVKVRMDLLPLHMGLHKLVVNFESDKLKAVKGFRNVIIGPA
Nature of the experiment: Inhibition of human recombinant His6-tagged TG2 expressed in insect cells assessed as reduction in incorporation of dansylcadaverine into N,N-dimethylcasein measured for 30 mins by fluorescence assay. More on the design: species or system Insect cell.
For the compound `CNC(=O)C(=O)CC[C@H](NC(=O)c1cc2c(Br)cccc2o1)C(=O)Nc1cccn(CC(=O)NC2C3CC4CC(C3)CC2C4)c1=O` (stereo not given in full), the IC50 is not above 0.025 µM.

Consider `CNC(=O)C(=O)CC[C@H](NC(=O)c1cc2ccccc2o1)C(=O)Nc1cccn(CC(=O)NC2C3CC4CC(C3)CC2C4)c1=O` (stereo not given in full), for which the IC50 is not above 0.025 µM.

Consider `CNC(=O)C(=O)CC[C@H](NC(=O)c1oc2ccccc2c1Cl)C(=O)Nc1cccn(CC(=O)NC2C3CC4CC(C3)CC2C4)c1=O` (stereo not given in full), for which the IC50 is not above 0.025 µM.

Take `CNC(=O)C(=O)CC[C@H](NC(=O)c1cc2c(F)c(F)ccc2[nH]1)C(=O)Nc1cccn(CC(=O)NC2C3CC4CC(C3)CC2C4)c1=O` (stereo not given in full): the IC50 was not above 0.025 µM.

Turning to `CNC(=O)C(=O)CC[C@H](NC(=O)c1cc2cc(Br)ccc2s1)C(=O)Nc1cccn(CC(=O)NC2C3CC4CC(C3)CC2C4)c1=O` (stereo not given in full), the IC50 was not above 0.025 µM.

On to `CNC(=O)C(=O)CC[C@H](NC(=O)c1[nH]c2ccccc2c1C)C(=O)Nc1cccn(CC(=O)NC2C3CC4CC(C3)CC2C4)c1=O` (stereo not given in full), for which the IC50 is less than 0.25 µM.

For `CNC(=O)C(=O)CC[C@H](NC(=O)C1Cc2ccccc2C1)C(=O)Nc1cccn(CC(=O)NC2C3CC4CC(C3)CC2C4)c1=O` (stereo not given in full), the IC50 was not above 0.025 µM.

Take `CNC(=O)C(=O)CC[C@H](NC(=O)c1cc2ccccc2[nH]1)C(=O)Nc1cccn(CC(=O)NC2C3CC4CC(C3)CC2C4)c1=O` (stereo not given in full): the IC50 was not above 0.025 µM.

Take `CNC(=O)C(=O)CC[C@H](NC(=O)c1cc2cccc(F)c2s1)C(=O)Nc1cccn(CC(=O)NC2C3CC4CC(C3)CC2C4)c1=O` (stereo not given in full): the IC50 is not above 0.025 µM.

Consider `CNC(=O)C(=O)CC[C@H](NC(=O)c1cc2ccccc2s1)C(=O)Nc1cccn(CC(=O)NC2C3CC4CC(C3)CC2C4)c1=O` (stereo not given in full), for which the IC50 was not above 0.025 µM.

(Values after ChEMBL document CHEMBL5370687 (ACS Med Chem Lett, 2023).)
